Measurements as given in patent publication US9187467B2, “2-phenyl benzothiazole linked imidazole compounds as potential anticancer agents and process for the preparation thereof” (Council of Scientific and Industrial Research, priority 2012, dated 2015).
Where two headings read alike, the source gives them in different places.

Columns and labels:
[1] = test system: MCF-7 (Breast carcinoma) cells; experiment: Cell cycle distribution by flow cytometry (FACS); type: cell-based; conditions: MCF-7 cells, 2 μM, 24h
Method: FIG. 1 represents FACS analysis of cell cycle distribution of MCF-7 cells after treatment with compounds CA-4, 21a, 21d, 4c, 6d, 6e, 6f, 7d, 7h and 7j at 2 μM concentration for 24h and control cells are the cells treated with DMSO (0.25%).
(§1) In order to investigate the mechanism underlying the anti-proliferative effect of the compounds the cell cycle distribution was analyzed in K562 (Leukemia) and MCF-7 (Breast carcinoma) cell lines by flow cytometry. Compounds CA-4, 21a, 21d, 4c, 6d, 6e, 6f, 7d, 7h and 7j have shown 1.72%, 14%, 12%, 14%, 12%, 14%, 14%, 16%, 16% &12% in K562 cells and 49.63%, 21%, 20%, 18%, 21%, 21%, 21%, 24%, 23% and 23% in MCF-7 cell line respectively. […] Thus compound 7d was considered for further studies (FIG. 1).

[2] = test system: SF-539; experiment: SRB anticancer assay, CNS; type: cell-based, human; conditions: Homo sapiens, SF-539, 48 h
[3] = test system: T-47D; experiment: SRB anticancer assay, breast; type: cell-based; conditions: Homo sapiens, T47D, 48 h
[4] = test system: UO-31; experiment: SRB anticancer assay, renal; type: cell-based, human; conditions: Homo sapiens, UO-31, 48 h
[5] = test system: U251; experiment: SRB anticancer assay, CNS; type: cell-based, human; conditions: Homo sapiens, U-251; U251, 48 h
[6] = test system: K562 (Leukemia) cells; experiment: Cell cycle distribution by flow cytometry; type: cell-based
Method: as §1

[7] = test system: BT-549; experiment: SRB anticancer assay, breast; type: cell-based, human; conditions: Homo sapiens, BT-549, 48 h
[8] = test system: IGROV1; experiment: SRB anticancer assay, ovarian; type: cell-based, human; conditions: Homo sapiens, IGROV-1; IGROV1, 48 h
[9] = test system: UACC-62; experiment: SRB anticancer assay, melanoma; type: cell-based, human; conditions: Homo sapiens, UACC-62, 48 h
[10] = test system: Melanoma cancer cell lines; experiment: SRB anticancer assay, panel result; type: cell-based, human; conditions: for LC50 / GI50: Homo sapiens; for LC50: 50% net cell death, read-out: mean graph midpoint value (MG_MID) of Log10 LC50 (converted); for mean graph midpoint value (MG_MID) of log10 TGI: total inhibition of net cell growth
Summary of the method: (§2)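 Each compound is profiled per cell line over five or more concentrations at tenfold spacing. Exposure lasts 48 h without washout, and the sulforhodamine B method quantifies cellular protein as a growth measure.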

[11] = test system: Renal cancer cell lines; experiment: SRB anticancer assay, panel result; type: cell-based, human; conditions: for CC50 / GI50: Homo sapiens; for CC50: 50% net cell death, read-out: mean graph midpoint value (MG_MID) of Log10 LC50 (converted); for mean graph midpoint value (MG_MID) of log10 TGI: total inhibition of net cell growth
Summary of the method: as §2

[12] = test system: Non-small cell lung cancer cell lines; experiment: SRB anticancer assay, panel result; type: cell-based, human; conditions: for LC50 / GI50: Homo sapiens; for LC50: 50% net cell death, read-out: mean graph midpoint value (MG_MID) of Log10 LC50 (converted); for mean graph midpoint value (MG_MID) of log10 TGI: total inhibition of net cell growth
Summary of the method: as §2

[13] = test system: CNS cancer cell lines; experiment: SRB anticancer assay, panel result; type: cell-based, human; conditions: for mean graph midpoint value (MG_MID) of log10 TGI: total inhibition of net cell growth; for CC50 / GI50: Homo sapiens; for CC50: 50% net cell death, read-out: mean graph midpoint value (MG_MID) of Log10 LC50 (converted)
Summary of the method: as §2

[14] = test system: Prostate cancer cell lines; experiment: SRB anticancer assay, panel result; type: cell-based, human; conditions: for LC50 / GI50: Homo sapiens; for LC50: 50% net cell death, read-out: mean graph midpoint value (MG_MID) of Log10 LC50 (converted); for mean graph midpoint value (MG_MID) of log10 TGI: total inhibition of net cell growth
Summary of the method: as §2

[15] = test system: Ovarian cancer cell lines; experiment: SRB anticancer assay, panel result; type: cell-based, human; conditions: for LC50 / GI50: Homo sapiens; for LC50: 50% net cell death, read-out: mean graph midpoint value (MG_MID) of Log10 LC50 (converted); for mean graph midpoint value (MG_MID) of log10 TGI: total inhibition of net cell growth
Summary of the method: as §2

[16] = test system: Colon cancer cell lines; experiment: SRB anticancer assay, panel result; type: cell-based, human; conditions: for mean graph midpoint value (MG_MID) of log10 TGI: total inhibition of net cell growth; for LC50 / GI50: Homo sapiens; for LC50: 50% net cell death, read-out: mean graph midpoint value (MG_MID) of Log10 LC50 (converted)
Summary of the method: as §2

[17] = test system: Leukemia cancer cell lines; experiment: SRB anticancer assay, panel result; type: cell-based, human; conditions: for LC50 / GI50: Homo sapiens; for LC50: 50% net cell death, read-out: mean graph midpoint value (MG_MID) of Log10 LC50 (converted); for mean graph midpoint value (MG_MID) of log10 TGI: total inhibition of net cell growth
Summary of the method: as §2

[18] = test system: PC-3; experiment: SRB anticancer assay, prostate; type: cell-based, human; conditions: Homo sapiens, PC-3, 48 h
[19] = test system: TK-10; experiment: SRB anticancer assay, renal; type: cell-based, human; conditions: Homo sapiens, TK-10, 48 h
[20] = test system: NCI-H522; experiment: SRB anticancer assay, non-small lung; type: cell-based, human; conditions: Homo sapiens, NCI-H522, 48 h
[21] = test system: ACHN; experiment: SRB anticancer assay, renal; type: cell-based, human; conditions: Homo sapiens, 48 h
[22] = test system: LOX IMVI; experiment: SRB anticancer assay, melanoma; type: cell-based, human; conditions: Homo sapiens, 48 h
[23] = test system: HL-60 (TB); experiment: SRB anticancer assay, leukemia; type: cell-based, human; conditions: Homo sapiens, HL-60, 48 h
[24] = test system: NCI-H226; experiment: SRB anticancer assay, non-small lung; type: cell-based, human; conditions: Homo sapiens, NCI-H226, 48 h
[25] = Melanoma panel, read-out: mean graph midpoint value (MG_MID) of Log10 GI50 (converted)
[26] = nine melanoma cancer cell lines, exposure at least 48 h, read-out: GI50, range over the panel
[27] = Renal panel, read-out: mean graph midpoint value (MG_MID) of Log10 GI50 (converted)
[28] = eight renal cancer cell lines, exposure at least 48 h, read-out: GI50, range over the panel
[29] = Non-small cell lung panel, read-out: mean graph midpoint value (MG_MID) of Log10 GI50 (converted)
[30] = nine Non-small cell lung cancer cell lines, exposure at least 48 h, read-out: GI50, range over the panel
[31] = CNS panel, read-out: mean graph midpoint value (MG_MID) of Log10 GI50 (converted)
[32] = six CNS cancer cell lines, exposure at least 48 h, read-out: GI50, range over the panel
[33] = Prostate panel, read-out: mean graph midpoint value (MG_MID) of Log10 GI50 (converted)
[34] = Ovarian panel, read-out: mean graph midpoint value (MG_MID) of Log10 GI50 (converted)
[35] = seven ovarian cancer cell lines, exposure at least 48 h, read-out: GI50, range over the panel
[36] = Colon panel, read-out: mean graph midpoint value (MG_MID) of Log10 GI50 (converted)
[37] = seven colon cancer cell lines, exposure at least 48 h, read-out: GI50, range over the panel
[38] = Leukemia panel, read-out: mean graph midpoint value (MG_MID) of Log10 GI50 (converted)
[39] = six leukemia cancer cell lines, exposure at least 48 h, read-out: GI50, range over the panel

Compound: COc1cc(OC)c2sc(-c3ccc(-n4cncc4-c4cc(OC)c(OC)c(OC)c4)cc3)nc2c1 [Compound 6f, 5,7-Dimethoxy-2-(4-(5-(3,4,5-trimethoxyphenyl)-1H-imidazol-1-yl)phenyl)benzo[d]thiazole]
- cells in G2/M phase [1]: 21%
- GI50 [2]: 8.59 µM
- GI50 [3]: 3.27 µM
- GI50 [4]: 2.27 µM
- GI50 [5]: 4.15 µM
- cells in G2/M phase [6]: 14%
- GI50 [7]: 3.35 µM
- GI50 [8]: 5.87 µM
- GI50 [9]: 4.14 µM
- LC50 ([10]; Melanoma panel): > 100 µM
- GI50 [10, 25]: 6.61 µM
- GI50 [10, 26]: 2.46 to 7.91 µM
- mean graph midpoint value (MG_MID) of log10 TGI ([10]; Melanoma panel): >−4.0
- CC50 ([11]; Renal panel): > 100 µM
- GI50 [11, 27]: 6.61 µM
- GI50 [11, 28]: 1.83 to 9.4 µM
- mean graph midpoint value (MG_MID) of log10 TGI ([11]; Renal panel): >−4.0
- LC50 ([12]; Non-small cell lung panel): > 100 µM
- GI50 [12, 29]: 11.2 µM
- GI50 [12, 30]: 3.27 to 75.9 µM
- mean graph midpoint value (MG_MID) of log10 TGI ([12]; Non-small cell lung panel): >−4.0
- mean graph midpoint value (MG_MID) of log10 TGI ([13]; CNS panel): >−4.0
- CC50 ([13]; CNS panel): > 100 µM
- GI50 [13, 31]: 15.8 µM
- GI50 [13, 32]: 4.15 to 8.59 µM
- LC50 ([14]; Prostate panel): > 100 µM
- GI50 [14, 33]: 16.2 µM
- GI50 ([14]; two prostate cancer cell lines (PC-3, DU-145), exposure at least 48 h, read-out: GI50, range over the panel): 2.54 µM
- mean graph midpoint value (MG_MID) of log10 TGI ([14]; Prostate panel): >−4.0
- LC50 ([15]; Ovarian panel): > 100 µM
- GI50 [15, 34]: 16.6 µM
- GI50 [15, 35]: 3.25 to 5.87 µM
- mean graph midpoint value (MG_MID) of log10 TGI ([15]; Ovarian panel): >−4.0
- mean graph midpoint value (MG_MID) of log10 TGI ([16]; Colon panel): >−4.0
- LC50 ([16]; Colon panel): > 100 µM
- GI50 [16, 36]: 7.41 µM
- GI50 [16, 37]: 3.92 to 5.96 µM
- LC50 ([17]; Leukemia panel): > 100 µM
- GI50 [17, 38]: 3.89 µM
- GI50 [17, 39]: 3.24 to 5.39 µM
- mean graph midpoint value (MG_MID) of log10 TGI ([17]; Leukemia panel): >−4.0
- GI50 [18]: 2.54 µM
- GI50 [19]: 9.4 µM
- GI50 [20]: 3.27 µM
- GI50 [21]: 6.67 µM
- GI50 [22]: 5.4 µM
- GI50 [23]: 3.3 µM

Compound: COc1cc(OC)cc(-c2cncn2-c2ccc(-c3nc4cc(OC)cc(OC)c4s3)cc2)c1 [Compound 6d, 2-(4-(5-(3,5-Dimethoxyphenyl)-1H-imidazol-1-yl)phenyl)-5,7-dimethoxybenzo[d]thiazole]
- cells in G2/M phase [1]: 21%
- GI50 [2]: 5.76 µM
- GI50 [3]: 3.17 µM
- GI50 [5]: 4.76 µM
- cells in G2/M phase [6]: 12%
- GI50 [24]: 18.5 µM
- GI50 [7]: 5.77 µM
- GI50 [8]: 5.07 µM
- GI50 [9]: 4.75 µM
- LC50 ([10]; Melanoma panel): > 100 µM
- GI50 [10, 25]: 10.5 µM
- GI50 [10, 26]: 1.53 to 9.69 µM
- mean graph midpoint value (MG_MID) of log10 TGI ([10]; Melanoma panel): >−4.0
- CC50 ([11]; Renal panel): > 100 µM
- GI50 [11, 27]: 12.9 µM
- GI50 [11, 28]: 2.13 to 16.8 µM
- mean graph midpoint value (MG_MID) of log10 TGI ([11]; Renal panel): >−4.0
- LC50 ([12]; Non-small cell lung panel): > 100 µM
- GI50 [12, 29]: 10.5 µM
- GI50 [12, 30]: 2.49 to 18.5 µM
- mean graph midpoint value (MG_MID) of log10 TGI ([12]; Non-small cell lung panel): −4.05
- mean graph midpoint value (MG_MID) of log10 TGI ([13]; CNS panel): −4.19
- CC50 ([13]; CNS panel): > 100 µM
- GI50 [13, 31]: 7.94 µM
- GI50 [13, 32]: 2.4 to 11.3 µM
- LC50 ([14]; Prostate panel): > 100 µM
- GI50 [14, 33]: > 100 µM
- mean graph midpoint value (MG_MID) of log10 TGI ([14]; Prostate panel): >−4.0
- LC50 ([15]; Ovarian panel): > 100 µM
- GI50 [15, 34]: 7.94 µM
- GI50 [15, 35]: 2.87 to 14.5 µM
- mean graph midpoint value (MG_MID) of log10 TGI ([15]; Ovarian panel): >−4.0
- mean graph midpoint value (MG_MID) of log10 TGI ([16]; Colon panel): >−4.0
- LC50 ([16]; Colon panel): > 100 µM
- GI50 [16, 36]: 13.2 µM
- GI50 [16, 37]: 4.52 to 4.93 µM
- LC50 ([17]; Leukemia panel): > 100 µM
- GI50 [17, 38]: 3.31 µM
- GI50 [17, 39]: 3.22 to 3.3 µM
- mean graph midpoint value (MG_MID) of log10 TGI ([17]; Leukemia panel): >−4.0
- GI50 [19]: 16.8 µM
- GI50 [20]: 2.49 µM
- GI50 [21]: > 100 µM
- GI50 [22]: 5.48 µM
